Measured values reported in US5773438A, “Synthetic matrix metalloprotease inhibitors and use thereof” (Glycomed Incorporated, priority 1994, dated 1998).
pKi: −log10 of the molar value. “Also recorded” adds a separate entry of the source.

Tests used:
[1] = target: Stromelysin (Homo sapiens, UniProt P08254); assay: inhibition of stromelysin (Table 2); format: biochemical; conditions: read-out: Strom inhibitory activity
Procedure: Specifically, assay of inhibition activity can be conducted as follows. […] Assays for inhibition of human stromelysin are conducted as described by Teahan, J., et al., Biochemistry (1989) 20:8497-8501.
Assay of inhibition activity can be conducted using a fluorogenic substrate developed by Knight et al., FEBS Letters (1992) 296:263. This method uses a fluorometer to determine the rate of substrate hydrolysis in a 96 well plate format. Reaction rates are determined at several substrate concentrations, and multiple inhibitor levels. The data are analyzed by Lineweaver-Burk, Dixon and Henderson plot analyses (Enzyme Kinetics (1975) Irwin Segal (John Wiley & Sons, Inc., publishers), and as described by Henderson, Biochem J. (1972) 127:321). The substrate levels range from 10-30μM. […] Inhibitors may be assayed against purified 72 kD gelatinase, 92 kD gelatinase, neutrophil collagenase, stromelysin or other proteases as appropriate. The enzymes are activated at 37° C. with APMA (4-aminophenylmercuric acetate), and the assays are carried out at room temperature.

[2] = test system: PdiBu-Induced Epidermal Hyperplasia; assay: PdiBu-induced epidermal hyperplasia mouse model (psoriasis); format: in vivo, hairless mice
Procedure: The phorbol ester, PdiBu (20 nmol in 20 μl if acetone) was applied to both ears of hairless mice (h/h) (approximately 1 cm^2 each). The test compounds (in total volume of 20 μl) were then applied to the right ear immediately (15 to 30 min) following PdiBu. The left ear of each animal received an equivalent amount (20 μl) of vehicle. Test compounds (and vehicle) were reapplied at 6 and 18 hours following PdiBu. Treatment times were staggered to allow exact time intervals to be obtained. At 30 hours after PdiBu, animals were anesthetized, and ear thickness values were obtained using a microcaliper. The weights of punch biopsies (6mm) were then obtained. Histology was performed on selected samples taken at 30 hours.
Left ear in each animal served as vehicle-treated controls (PdiBu+ETOH). Thus, the controls for this series include: 1) Untreated controls; 2) PdiBu plus vehicle alone (included for each mouse tested); 3) PdiBu plus AHA; 4) PdiBu plus Lidex® as a positive control.

[3] = test system: protease activity of chronic wound fluid; assay: Azocoll assay of protease activity in chronic wound fluid; format: biochemical, human
Procedure: Fluids were collected from 3 types of human wounds termed closed spontaneously healing wounds, open slowly healing wounds, and open chronic wounds. In the first category were fluids collected from the chest wall of women following mastectomy surgery. Fluids from non-infected wounds that were left open for valid surgical reasons were considered open slowly healing wounds. An occlusive dressing was placed over the wound bed, and fluids were collected after 2-6 hours of occlusion. Finally, fluids were also collected from chronic open wounds by covering the wounds with occlusive dressings. Wounds were considered to be chronic if they were not clinically infected and had been open and not healing for more than 4 weeks.
The various wound fluids were assayed for matrix metalloproteinase activity using the Azocoll assay essentially as described by Chavira, et al., Analytic Biochemistry (1984), 136:446.
The fluids were centrifuged, and the supernatants filtered using a 0.45μ sterile Gelman filter. The filtrates were stored frozen at -80° C. until tested for protease activity.
The effects of four inhibitors on the protease activity present in wound fluids were determined. The inhibitors were: compounds
Stock solutions of the four inhibitors were all prepared at a concentration of 800 μg/ml. Due to different solubility properties of the inhibitors, different techniques were utilized. […] S1209 was dissolved in 1% DMSO then dissolved in 10 mM citrate, pH 5.5, containing 0.05% methyl cellulose. 39A was dissolved in propylene glycol (to give a final concentration of 2.4%) then dissolved in 1 mM CaCl2, 50 mM Tris-Cl, pH 7.8. 21A was dissolved in propylene glycol (2.4%) methyl cellulose (0.05%) and 10 mM citrate, pH 8.
The protease substrate, Azocoll, was obtained from Sigma Chemical Corporation and it is a substrate for collagenase/gelatinase-like metalloproteinase enzymes and general proteases. Clostridium histolyticum collagenase (the crude form of the enzyme) was from Worthington Biochemicals. General chemicals including TRIS buffer, DMSO, and CaCl2 were from Sigma Chemical Corporation.
Briefly, 900 μl of the Azocoll substrate suspension in buffer ([…] in 50 mM TRIS, pH 7.8, 1 mM CaCl2) was added to 1.5 ml microcentrifuge tubes then 50 μl of inhibitor (or buffer) and 50 μl of chronic wound fluid (or collagenase standard) were added to the reaction tube. The reaction tubes were placed at 37° C. in a shaker that inverted the tubes 30 times per minute. After 24 hours of incubation, the reaction tubes were centrifuges at 10,000 X g and the absorbance of the supernatant solution was measured at 520 nm with a Milton-Roy spectrophotometer. Proteolysis of Azocoll substrate generates soluble colored fragments from the insoluble Azocoll substrate. Wound fluid samples were incubated alone or with the inhibitors. Controls included incubation of the Azocoll substrate with the assay buffer to measure spontaneous degradation of the substrate. A standard curve for digestion of the Azocoll substrate was generated by incubation of the Azocoll with crude bacterial collagenase. Protease levels were expressed as net μg of collagenase equivalent per ml of chronic wound fluid. In the figures, certain of the wound fluids are referred to by an individual name.
For these experiments, due to the different solubility properties of the inhibitors, different techniques were utilized. […] S1209 was dissolved in 1% DMSO then dissolved in 10 mM citrate, pH 5.5, containing 0.05% methyl cellulose. 39A was dissolved in propylene glycol (to give a final concentration of 2.4%) then dissolved in 1 mM CaCl2, […] Tris-Cl, pH 7.8. 21A was dissolved in propylene glycol (2.4%) methyl cellulose (0.05%) and 10 mM citrate, pH 8.

[4] = test system: hypovolemic shock; assay: hypovolemic shock, trauma-hemorrhage and resuscitation, non-heparinized rat; format: in vivo, Sprague-Dawley rats
Procedure: This experiment relates to metalloprotease inhibitors in treating hypovolemic shock when administered systemically (via i.v. injection, infusion or other appropriate route) during resuscitation following hemorrhage-induced shock in a non-heparinized animal.
Following hemorrhage, Ringer's lactate (3X maximum bleedout volume) was given over 45 minutes followed by Ringer's lactate (2X maximum bleedout volume) over 60 minutes. […] Sham-operated animals underwent blood vessel cannulation and midline incision, but hemorrhage and resuscitation was not induced. […] Saline-treated underwent trauma-hemorrhage and fluid resuscitation plus vehicle (an equal volume of normal saline) treatment.

Stromelysin, sequence (P08254 100-477): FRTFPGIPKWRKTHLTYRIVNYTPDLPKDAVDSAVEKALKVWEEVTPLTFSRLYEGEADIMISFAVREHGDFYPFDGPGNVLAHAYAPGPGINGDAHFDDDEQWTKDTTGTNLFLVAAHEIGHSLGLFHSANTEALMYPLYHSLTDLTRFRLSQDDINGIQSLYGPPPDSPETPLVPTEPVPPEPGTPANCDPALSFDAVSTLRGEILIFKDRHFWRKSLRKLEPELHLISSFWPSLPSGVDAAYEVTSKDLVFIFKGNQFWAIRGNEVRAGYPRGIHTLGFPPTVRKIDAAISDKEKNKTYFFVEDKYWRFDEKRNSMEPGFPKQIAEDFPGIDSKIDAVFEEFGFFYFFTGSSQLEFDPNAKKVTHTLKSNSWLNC

## CNC(=O)[C@H](Cc1c[nH]c2ccccc12)NC(=O)[C@@H](CC(=O)NO)CC(C)C [Compound 5A, N-[D,L-2-isobutyl-3-(N'-hydroxycarbonylamido)-propanoyl]-tryptophan methylamide]
[1]
  pKi: 7.57
[2]; PdiBu + 5A, 0.51 μmol/ear at 0.25 and 24 hours, 6 mm punch
  skin biopsy weight: 13.4 ± 1.5 mg
[2]; PdiBu + 5A, 0.51 μmol/ear at 0.25 and 24 hours, of untreated control
  skin biopsy weight, % of Control: 146%
[2]; PdiBu + 5A, topical 0.51 μmol/ear
  ear thickness: 18.6 ± 1.6 inch × 10^-3
[2]; PdiBu + 5A, topical 0.51 μmol/ear, of untreated control
  ear thickness, % of Control: 140%
[2]; histology
  PdiBu-induced epidermal hyperplasia: inhibited; also recorded: completely prevents; also recorded: decreased inflammation and epidermal hyperplasia
  PdiBu-induced extravasation of RBC's: inhibited
  PdiBu-induced migration of inflammatory cells into dermis and epidermis: inhibited
  epidermal morphology: more normal appearing epidermal morphology
[2]; in vivo model for psoriasis
  anti-inflammatory activity: potent anti-inflammatory activity; also recorded: nearly comparable to that observed with Lidex®
[2]; topical
  effect on PdiBu-induced ear thickness: significantly inhibited
  effect on PdiBu-induced increase in punch biopsy weight: significantly inhibited
[3]; FIG. 4
  effective concentrations (order of magnitude): μM
  inhibition of protease activity of a chronic wound fluid: effectively inhibited; also recorded: much more potent that EDTA
[3]; FIG. 4, 0.4 μg/ml (0.1 μM)
  inhibition of proteolytic degradation of Azocoll: approximately 92%
[3]; FIG. 4, 4 μg/ml (1 μM)
  inhibition of proteolytic degradation of Azocoll: approximately 92%
[3]; FIG. 4, 4 μg/ml (10 μM)
  inhibition of proteolytic degradation of Azocoll: approximately 96%
[3]; FIG. 4, 40 μg/ml (100 μM)
  inhibition of proteolytic degradation of Azocoll: approximately 96%
[3]; FIG. 7, 800 μg/ml, untreated 284±52
  protease activity of chronic wound fluid after addition of inhibitor: 45±1 μg collagenase equivalents/ml of wound fluid
[3]; FIG. 7, highest concentration (800 μg/ml)
  inhibition of protease activity of chronic wound fluid: 84%
[3]; FIG. 7, lower concentrations, untreated 284±52
  protease activity of chronic wound fluid after addition of inhibitor, lower concentrations: up to 90±6 μg collagenase equivalents/ml of wound fluid
[4]; 2 and 4 hours
  hepatocellular function (Vmax and Km): improved hepatic function relative to saline group; also recorded: restores or significantly improves
[4]; 2 h
  Vmax of indocyanine green clearance versus saline group: significantly higher
[4]; 2 h after resuscitation, of sham level
  maximal clearance rate (Vmax) of indocyanine green: about 85%
[4]; 2 h and 4 h, liver, kidney, spleen, small intestine
  microvascular blood flow versus saline group: elevated relative to the saline group; also recorded: restores or significantly improves
[4]; 2 h and 4 h, of sham, liver, kidney, spleen, small intestine
  microvascular blood flow: 80-100%
[4]; 4 h
  Vmax of indocyanine green clearance versus saline treated animals: two-fold that of saline treated animals
[4]; following resuscitation, versus saline or sham
  total peripheral resistance: lower following resuscitation in 5A group versus saline or sham treatment; also recorded: decreases total peripheral resistance
[4]; of sham group
  cardiac output: about 80%
  stroke volume: about 85%
[4]; of the sham group
  mean arterial pressure: 60-70%
[4]; rat, in vivo
  cardiac output versus saline group: significantly elevated; also recorded: restores or significantly improves
  mean arterial pressure versus saline: not significantly different; also recorded: no significant effects
  stroke volume versus saline group: elevated relative to saline group
  systemic hematocrit versus saline treated group: no significant effects
[4]; versus other groups
  heart rate: about the same; also recorded: no significant effects
